Data reported in PubChem BioAssay AID248 (DTP/NCI, 2004).
Where “and” joins values, the source holds several entries; their conditions need not be identical. Equal values may be shown once. Toxic doses and inconclusive results are not listed. Cut-off read from the data, not from the text of the source: active = T/C of 150% or more; inactive = T/C below 125%.

Tested on: L1210 leukemia ip in BDF1 mice, survival T/C
Experiment: NCI In Vivo Anticancer Drug Screen. Data for tumor model L1210 Leukemia (intraperitoneal) in B6D2F1 (BDF1) mice
Conditions: higher = longer survival
Summary of the method: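 Antitumor effect is assessed in tumor-bearing animals. Survival in the compound arm is compared with a vehicle-dosed control arm and expressed as their quotient.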

[1] = endpoint: mean survival time, dose: 100.0 mg/kg/injection, schedule: Q04DX002 (ip), vehicle: Klucel (hydroxypropylcellulose) (HPC)
[2] = endpoint: mean survival time, dose: 200.0 mg/kg/injection, schedule: Q04DX002 (ip), vehicle: Klucel (hydroxypropylcellulose) (HPC)
[3] = endpoint: mean survival time, dose: 100.0 mg/kg/injection, schedule: Q04DX003 (ip), vehicle: Klucel (hydroxypropylcellulose) (HPC)
[4] = endpoint: mean survival time, dose: 200.0 mg/kg/injection, schedule: Q04DX003 (ip), vehicle: Klucel (hydroxypropylcellulose) (HPC)
[5] = endpoint: mean survival time, dose: 100.0 mg/kg/injection, schedule: Q01DX009 (ip), vehicle: saline
[6] = endpoint: mean survival time, dose: 200.0 mg/kg/injection, schedule: Q01DX009 (ip), vehicle: saline
[7] = endpoint: mean survival time, dose: 400.0 mg/kg/injection, schedule: Q01DX009 (ip), vehicle: saline

Measured: T/C

S=c1c2ccccc2oc2ccccc12
inactive: endpoint: mean survival time, dose: 50.0 mg/kg/injection, schedule: Q04DX002 (ip), vehicle: saline with Tween-80 93 % of control | endpoint: mean survival time, dose: 100.0 mg/kg/injection, schedule: Q04DX002 (ip), vehicle: saline with Tween-80 93 % of control | endpoint: mean survival time, dose: 200.0 mg/kg/injection, schedule: Q04DX002 (ip), vehicle: saline with Tween-80 87 % of control | endpoint: mean survival time, dose: 400.0 mg/kg/injection, schedule: Q04DX002 (ip), vehicle: saline with Tween-80 97 % of control

Cc1ccc(Cc2c(C=O)nc(N)[nH]c2=O)c2ccccc12
inactive: [1] 90 % of control | [2] 97 % of control

O=C(OCCl)c1ccc(Cl)c(Cl)c1
inactive: endpoint: mean survival time, dose: 25.0 mg/kg/injection, schedule: Q04DX003 (ip), vehicle: Klucel (hydroxypropylcellulose) (HPC) 95 % of control | endpoint: mean survival time, dose: 50.0 mg/kg/injection, schedule: Q04DX003 (ip), vehicle: Klucel (hydroxypropylcellulose) (HPC) 98 % of control | [3] 101 % of control

Cc1cc(Cl)cc2sc(=S)[nH]c12
inactive: endpoint: mean survival time, dose: 100.0 mg/kg/injection, schedule: Q01DX009 (ip), vehicle: Klucel (hydroxypropylcellulose) (HPC) 96 % of control and 108 % of control | [1] 110 % of control | endpoint: mean survival time, dose: 200.0 mg/kg/injection, schedule: Q01DX009 (ip), vehicle: Klucel (hydroxypropylcellulose) (HPC) 86 % of control and 92 % of control | [2] 110 % of control | endpoint: mean survival time, dose: 400.0 mg/kg/injection, schedule: Q01DX009 (ip), vehicle: Klucel (hydroxypropylcellulose) (HPC) 87 % of control | endpoint: mean survival time, dose: 400.0 mg/kg/injection, schedule: Q04DX002 (ip), vehicle: Klucel (hydroxypropylcellulose) (HPC) 110 % of control

Cc1ccccc1C[P+](c1ccccc1)(c1ccccc1)c1ccccc1
inactive: endpoint: mean survival time, dose: 12.5 mg/kg/injection, schedule: Q01DX009 (ip), vehicle: acetone 101 % of control | endpoint: mean survival time, dose: 12.5 mg/kg/injection, schedule: Q04DX003 (ip), vehicle: saline 96 % of control | endpoint: mean survival time, dose: 25.0 mg/kg/injection, schedule: Q04DX003 (ip), vehicle: saline 102 % of control | endpoint: mean survival time, dose: 50.0 mg/kg/injection, schedule: Q04DX003 (ip), vehicle: saline 106 % of control

CCOC(=O)c1[nH]c(C)c(C)c1-c1ccccc1
inactive: [3] 109 % of control | [4] 94 % of control

O=C1C=C(C2CCCCC2)C(=O)C2CCCCC12 (centres undefined)
inactive: endpoint: mean survival time, dose: 100.0 mg/kg/injection, schedule: Q01DX001 (ip), vehicle: Klucel (hydroxypropylcellulose) (HPC) 107 % of control | [5] 92 % of control | endpoint: mean survival time, dose: 200.0 mg/kg/injection, schedule: Q01DX001 (ip), vehicle: Klucel (hydroxypropylcellulose) (HPC) 105 % of control | [6] 91 % of control | endpoint: mean survival time, dose: 400.0 mg/kg/injection, schedule: Q01DX001 (ip), vehicle: Klucel (hydroxypropylcellulose) (HPC) 114 % of control | [7] 86 % of control

NC(=O)c1[nH]nc(C2OC(CO)C(O)C2O)c1O (centres undefined)
inactive: endpoint: mean survival time, dose: 2.5 mg/kg/injection, schedule: Q01DX009 (ip), vehicle: saline 115 % of control | endpoint: mean survival time, dose: 2.5 mg/kg/injection, schedule: Q04DX003 (ip), vehicle: saline 110 % of control | endpoint: mean survival time, dose: 5.0 mg/kg/injection, schedule: Q01DX001 (ip), vehicle: saline 109 % of control | endpoint: mean survival time, dose: 5.0 mg/kg/injection, schedule: Q01DX009 (ip), vehicle: saline 96 % of control | endpoint: mean survival time, dose: 5.0 mg/kg/injection, schedule: Q04DX003 (ip), vehicle: saline 111 % of control and 123 % of control | endpoint: mean survival time, dose: 6.6 mg/kg/injection, schedule: Q04DX003 (ip), vehicle: saline 107 % of control | endpoint: mean survival time, dose: 10.0 mg/kg/injection, schedule: Q01DX001 (ip), vehicle: saline 113 % of control | endpoint: mean survival time, dose: 10.0 mg/kg/injection, schedule: Q04DX003 (ip), vehicle: saline 113 % of control and 121 % of control | endpoint: mean survival time, dose: 20.0 mg/kg/injection, schedule: Q01DX001 (ip), vehicle: saline 111 % of control | endpoint: mean survival time, dose: 20.0 mg/kg/injection, schedule: Q04DX003 (ip), vehicle: saline 121 % of control | endpoint: median survival time, dose: 0.5 mg/kg/injection, schedule: Q04DX003 (ip), vehicle: saline 108 % of control | endpoint: median survival time, dose: 1.0 mg/kg/injection, schedule: Q04DX003 (ip), vehicle: saline 106 % of control and 107 % of control | endpoint: median survival time, dose: 2.0 mg/kg/injection, schedule: Q04DX003 (ip), vehicle: saline 107 % of control and 112 % of control | endpoint: median survival time, dose: 4.0 mg/kg/injection, schedule: Q04DX003 (ip), vehicle: saline 109 % of control and 118 % of control | endpoint: median survival time, dose: 8.0 mg/kg/injection, schedule: Q04DX003 (ip), vehicle: saline 112 % of control and 121 % of control

NC(N)=NN=C(c1ccccc1)c1ccccc1
inactive: endpoint: mean survival time, dose: 15.0 mg/kg/injection, schedule: Q01DX Z (ip), vehicle: other 101 % of control | endpoint: mean survival time, dose: 30.0 mg/kg/injection, schedule: Q01DX Z (ip), vehicle: other 98 % of control | endpoint: mean survival time, dose: 60.0 mg/kg/injection, schedule: Q01DX Z (ip), vehicle: other 106 % of control

N#CC(C#N)=Cc1ccc2c(c1)CCC2
inactive: endpoint: mean survival time, dose: 10.0 mg/kg/injection, schedule: Q01DX009 (ip), vehicle: saline with Tween-80 100 % of control | endpoint: mean survival time, dose: 20.0 mg/kg/injection, schedule: Q01DX009 (ip), vehicle: saline with Tween-80 96 % of control | endpoint: mean survival time, dose: 40.0 mg/kg/injection, schedule: Q01DX009 (ip), vehicle: saline with Tween-80 94 % of control | endpoint: mean survival time, dose: 75.0 mg/kg/injection, schedule: Q01DX001 (ip), vehicle: other 96 % of control

NCC(=O)Nc1ccc(S(=O)(=O)c2ccc(NC(=O)CN)cc2)cc1
inactive: endpoint: mean survival time, dose: 100.0 mg/kg/injection, schedule: Q01DX001 (ip), vehicle: saline 104 % of control | endpoint: mean survival time, dose: 200.0 mg/kg/injection, schedule: Q01DX001 (ip), vehicle: saline 101 % of control | endpoint: mean survival time, dose: 400.0 mg/kg/injection, schedule: Q01DX001 (ip), vehicle: saline 98 % of control

COC(=O)Cc1ccccc1C(=O)OC
inactive: endpoint: mean survival time, dose: 100.0 mg/kg/injection, schedule: Q04DX003 (ip), vehicle: saline with Tween-80 107 % of control | endpoint: mean survival time, dose: 200.0 mg/kg/injection, schedule: Q04DX003 (ip), vehicle: saline with Tween-80 96 % of control | endpoint: mean survival time, dose: 400.0 mg/kg/injection, schedule: Q04DX003 (ip), vehicle: saline with Tween-80 100 % of control

C/C(=N/O)c1c[n+]([O-])ccn1
inactive: [5] 102 % of control | [3] 94 % of control | endpoint: mean survival time, dose: 100.0 mg/kg/injection, schedule: Q04DX003 (ip), vehicle: saline 101 % of control | [6] 94 % of control | [4] 94 % of control | endpoint: mean survival time, dose: 200.0 mg/kg/injection, schedule: Q04DX003 (ip), vehicle: saline 98 % of control | [7] 96 % of control | endpoint: mean survival time, dose: 400.0 mg/kg/injection, schedule: Q04DX003 (ip), vehicle: Klucel (hydroxypropylcellulose) (HPC) 100 % of control | endpoint: mean survival time, dose: 400.0 mg/kg/injection, schedule: Q04DX003 (ip), vehicle: saline 102 % of control

C/[N+]([O-])=N\Nc1c(Cl)cc(Cl)cc1Cl
inactive: endpoint: mean survival time, dose: 50.0 mg/kg/injection, schedule: Q01DX009 (ip), vehicle: saline with Tween-80 94 % of control | endpoint: mean survival time, dose: 100.0 mg/kg/injection, schedule: Q01DX009 (ip), vehicle: saline with Tween-80 105 % of control | endpoint: mean survival time, dose: 200.0 mg/kg/injection, schedule: Q01DX009 (ip), vehicle: saline with Tween-80 102 % of control

NC(=S)Nc1cccnc1
inactive: endpoint: mean survival time, dose: 25.0 mg/kg/injection, schedule: Q04DX002 (ip), vehicle: Klucel (hydroxypropylcellulose) (HPC) 91 % of control | endpoint: mean survival time, dose: 50.0 mg/kg/injection, schedule: Q04DX002 (ip), vehicle: Klucel (hydroxypropylcellulose) (HPC) 91 % of control | [1] 97 % of control

C1=C(N2CCOCC2)CCCCC1
inactive: [5] 108 % of control | [6] 109 % of control | [7] 108 % of control

NNC(=O)Nc1cccnc1
inactive: endpoint: mean survival time, dose: 75.0 mg/kg/injection, schedule: Q01DX009 (ip), vehicle: saline 106 % of control
